# Data as given in US20050100617A1, “Method for improving age-related physiological deficits and increasing longevity” (priority 2001, published 2005).
# System: skeletal muscle (gastrocnemius) gene expression
# Assay: Gene expression profiling in skeletal muscle, short-term (3 months) dietary intervention in young mice
# Assay type: in vivo
# Conditions: 3 months treatment
# Protocol: For each target gene, the fold change is calculated as follows: [Expression obtained with the experimental diet] divided by [Expression obtained with control diet]. Consequently, fold changes of all target genes are equal to 1 (one) for the control diet. Thus, fold changes refers to the modulation of expression of a given target gene in muscle tissue after 3 months feeding with an experimental diet, for example, diets B, C, D, or F, when compared to the expression of the same gene in muscle tissue of the control group (diet A).
# Dietary intervention was of 3 months, all animal groups were fed Ad libitum except for the group of caloric restricted mice which as fed 67% of the daily food consumed by the control Ad libitum group. Animal weight was measured once a week.
# The effect of short and long nutritional intervention was investigated. The short-term dietary interventions with diet A, B, C, D and F was initiated in young mice and lasted for three months. In a similar way, long-term interventions were initiated at three months of age for the following diets A and B and D and lasted twenty-one months.
# Male mice C57/B16 were obtained from Iffa credo (France) at 9 weeks of age. Upon arrival mice were housed by groups of 6 animals. After 3 weeks adaptation, mice (12 weeks old) were randomized 6 groups (A to F) of 12 mice each and housed individually. Dietary intervention was of 3 months; mice had free access to water and were submitted to 12 hours light and dark cycles.
# The control diet (diet A) composed of 18% proteins (soy and whey), 11% fat (soybean oil), 59% carbohydrates (starch+sucrose) and 10% cellulose was supplemented with either a cocktail of antioxidants comprising vitamin C, vitamin E, grape seed extract and cysteine (diet C) and/or L-camitine (diet D and F respectively). For caloric restriction (diet B) fat, starch and sucrose were reduced to provide 67% of the daily calorie consumption of the Ad-lib control group while providing 100% for proteins, minerals and vitamins. These diets are as follows: • Diet A—Control: 18% proteins (soy and whey), 11% fat, 59% carbohydrates, 5% cellulose. • Diet B—Caloric restriction: 18% proteins (soy and whey), 7.7% fat, 32.5% carbohydrates, 5% cellulose • Diet C—Cocktail of antioxidants : Diet A+0.19% vit C, 0.03% vit E, 0.075% grape seed extract, 0.4% cysteine. • Diet D: Carnitine and Antioxidants: Diet A+0.3% L- camitine+cocktail of antioxidants of diet C. • Diet F: Carnitine: Diet A+0.3% L- carnitine
# Mice were decapitated and dissected rapidly. Skeletal muscles (gastrocnemius) were immersed in RNAlatter (Ambion) and frozen at −80° C. until use. For RNA extraction, muscles were homogenized with ceramic beads (FastPrep, Q-Biogene) and the RNA extracted with Totally RNA kit (Ambion). The quality of the RNA was checked by Agilent technology. RNA pools from four mice each were created and hybridized to Affymetrix Murine U74Av2 high-density oligonucleotide microarrays.
# The Global Error Assessment (GEA) methodology was used to select differentially expressed genes in the present invention. See Bioinformatics, Vol. 20, No. 16 (Oxford University Press 2004) pp. 2726-2737, the content of which is hereby incorporated by reference thereto. The goal was to select genes with statistically significant differential expression between treatments and ages of the mice of the study.
smiles,measurement,setting,value
"C[N+](C)(C)C[C@H](O)CC(=O)[O-] [Carnitine, L-carnitine]",Fold Changes 0610013E23Rik (RIKEN cDNA 0610013E23 gene),,0.6 fold
same,Fold Changes 2010012F05Rik (RIKEN cDNA 2010012F05 gene),,0.8 fold
same,Fold Changes 2210419D22Rik (RIKEN cDNA 2210419D22 gene),,0.8 fold
same,Fold Changes 2310016A09Rik (RIKEN cDNA 2310016A09 gene),,0.7 fold
same,Fold Changes 2310073E15Rik (RIKEN cDNA 2310073E15 gene),,1.2 fold
same,Fold Changes 2610034N03Rik (RIKEN cDNA 2610034N03 gene),,0.5 fold
same,Fold Changes 2700059D21Rik (RIKEN cDNA 2700059D21 gene),,0.5 fold
same,Fold Changes 3110038L01Rik (RIKEN cDNA 3110038L01 gene),,1.4 fold
same,Fold Changes 4732477C12Rik (RIKEN cDNA 4732477C12 gene),,1.2 fold
same,Fold Changes 5730454B08Rik (RIKEN cDNA 5730454B08 gene),,0.8 fold
same,Fold Changes 5730497N03Rik (RIKEN cDNA 5730497N03 gene),,0.2 fold
same,Fold Changes 6330407G11Rik (RIKEN cDNA 6330407G11 gene),,0.6 fold
same,Fold Changes 6720463E02Rik (RIKEN cDNA 6720463E02 gene),,1.3 fold
same,"Fold Changes Actb (actin, beta, cytoplasmic)",,1.4 fold
same,Fold Changes Akt1s1 (AKT1 substrate 1 (proline-rich)),,1.4 fold
same,"Fold Changes Aldh2 (aldehyde dehydrogenase 2, mitochondrial)",,1.7 fold
same,"Fold Changes Anp32e (acidic (leucine-rich) nuclear phosphoprotein 32 family, member E)",,0.6 fold
same,Fold Changes Apobec2 (apolipoprotein B editing complex 2),,0.5 fold
same,Fold Changes Arid1a (AT rich interactive domain 1A (Swi1 like)),,0.6 fold
same,"Fold Changes Arpc2 (actin related protein 2/3 complex, subunit 2)",,0.6 fold
same,"Fold Changes Atp1b2 (ATPase, Na+/K+ transporting, beta 2 polypeptide)",,4.1 fold
same,Fold Changes Atp13a (ATPase type 13A),,0.7 fold
same,Fold Changes Birc4 (baculoviral IAP repeat-containing 4),,5.9 fold
same,Fold Changes C4 (complement component 4 (within H-2S)),,0.6 fold
same,Fold Changes Camk2a (calcium/calmodulin-dependent protein kinase II alpha),,4.6 fold
same,"Fold Changes Capza2 (capping protein (actin filament) muscle Z-line, alpha 2)",,0.7 fold
same,"Fold Changes Capzb (capping protein (actin filament) muscle Z-line, beta)",,0.6 fold
same,Fold Changes Car4 (carbonic anhydrase 4),,2.3 fold
same,Fold Changes Cbfb (core binding factor beta),,0.7 fold
same,Fold Changes Ccl9 (chemokine (C-C motif) ligand 9),,0.5 fold
same,Fold Changes Cd97 (CD97 antigen),,5.4 fold
same,Fold Changes Cd164 (CD164 antigen),,0.8 fold
same,Fold Changes Cdh10 (cadherin 10),,0.4 fold
same,"Fold Changes Cebpd (CCAAT/enhancer binding protein (C/EBP), delta)",,0.5 fold
same,"Fold Changes Copb2 (coatomer protein complex, subunit beta 2 (beta prime))",,0.7 fold
same,Fold Changes Cpd (carboxypeptidase D),,1.9 fold
same,"Fold Changes D8Ertd69e (DNA segment, Chr 8, ERATO Doi 69, expressed)",,1.2 fold
same,"Fold Changes D19Ertd678e (DNA segment, Chr 19, ERATO Doi 678, expressed)",,5.2 fold
same,Fold Changes Ddb1 (damage specific DNA binding protein 1),,0.7 fold
same,Fold Changes Deb1 (differentially expressed in B16F10 1),,0.8 fold
same,Fold Changes Dyrk1a (dual-specificity tyrosine-(Y)-phosphorylation regulated kinase 1a),,1.8 fold
same,Fold Changes E030006K04Rik (RIKEN cDNA E030006K04 gene),,2.9 fold
same,"Fold Changes Eif2s3x (eukaryotic translation initiation factor 2, subunit 3, structural gene X-linked)",,0.7 fold
same,Fold Changes Eif4ebp1 (eukaryotic translation initiation factor 4E binding protein 1),,0.6 fold
same,Fold Changes Eif4ebp2 (eukaryotic translation initiation factor 4E binding protein 2),,0.6 fold
same,Fold Changes Enpep (glutamyl aminopeptidase),,0.6 fold
same,Fold Changes Eps15 (epidermal growth factor receptor pathway substrate 15),,0.7 fold
same,Fold Changes Erv4 (endogenous retroviral sequence 4 (with leucine t-RNA primer)),,5.2 fold
same,Fold Changes Esr1 (estrogen receptor 1 (alpha)),,6.5 fold
same,"Fold Changes Fcgr2b (Fc receptor, IgG, low affinity Ilb)",,0.1 fold
same,Fold Changes G0s2 (G0/G1 switch gene 2),,1.5 fold
same,Fold Changes Galnt1 (UDP-N-acetyl-alpha-D-galactosamine:polypeptide N-acetylgalactosaminyltra),,0.5 fold
same,Fold Changes Gas5 (growth arrest specific 5),,0.6 fold
same,Fold Changes Gpr12 (G-protein coupled receptor 12),,0.7 fold
same,Fold Changes Gpx7 (glutathione peroxidase 7),,0.3 fold
same,"Fold Changes Gstm5 (glutathione S-transferase, mu 5)",,0.6 fold
same,"Fold Changes Hbb-b1 (hemoglobin, beta adult major chain)",,1.2 fold
same,Fold Changes Hdac2 (histone deacetylase 2),,0.8 fold
same,"Fold Changes Hist2h3c2 (histone 2, H3c2)",,1.5 fold
same,Fold Changes Hmgcl (3-hydroxy-3-methylglutaryl-Coenzyme A lyase),,0.5 fold
same,Fold Changes Hoxd8 (homeo box D8),,0.6 fold
same,Fold Changes Htr1a (5-hydroxytryptamine (serotonin) receptor 1A),,4.2 fold
same,Fold Changes Igfbp5 (insulin-like growth factor binding protein 5),,0.6 fold
same,Fold Changes Itgb1 (integrin beta 1 (fibronectin receptor beta)),,0.7 fold
same,"Fold Changes Itpr1 (inositol 1,4,5-triphosphate receptor 1)",,0.4 fold
same,Fold Changes Junb (Jun-B oncogene),,0.4 fold
same,Fold Changes Klf3 (Kruppel-like factor 3 (basic)),,5.9 fold
same,Fold Changes Klrb1c (killer cell lectin-like receptor subfamily B member 1C),,0.2 fold
same,Fold Changes Krtap3-1 (keratin associated protein 3-1),,0.7 fold
same,Fold Changes Ksr (kinase suppressor of ras),,1.8 fold
same,Fold Changes Lbp (lipopolysaccharide binding protein),,0.6 fold
same,"Fold Changes Ldh2 (lactate dehydrogenase 2, B chain)",,1.6 fold
same,Fold Changes Lpl (lipoprotein lipase),,1.4 fold
same,Fold Changes Lypla1 (lysophospholipase 1),,4.8 fold
same,Fold Changes Macf1 (microtubule-actin crosslinking factor 1),,0.5 fold
same,Fold Changes Mapk9 (mitogen activated protein kinase 9),,2.8 fold
same,"Fold Changes Mapre3 (microtubule-associated protein, RP/EB family, member 3)",,0.4 fold
same,Fold Changes Mapt (microtubule-associated protein tau),,0.5 fold
same,Fold Changes Matr3 (matrin 3),,0.6 fold
same,Fold Changes Mnt (max binding protein),,0.6 fold
same,Fold Changes Mt1 (metallothionein 1),,0.5 fold
same,Fold Changes Mt2 (metallothionein 2),,0.3 fold
same,"Fold Changes Muc1 (mucin 1, transmembrane)",,0.5 fold
same,Fold Changes Myo5a (myosin Va),,0.1 fold
same,Fold Changes Ndufb3 (NADH dehydrogenase (ubiquinone) 1 beta subcomplex 3),,1.2 fold
same,Fold Changes Neurod6 (neurogenic differentiation 6),,0.1 fold
same,Fold Changes Nnt (nicotinamide nucleotide transhydrogenase),,1.7 fold
same,Fold Changes Npc1 (Niemann Pick type C1),,0.6 fold
same,Fold Changes Nras (neuroblastoma ras oncogene),,0.6 fold
same,"Fold Changes Orc4l (origin recognition complex, subunit 4-like (S. cerevisiae))",,0.6 fold
same,Fold Changes Pcdha12 (protocadherin alpha 12),,0.4 fold
same,Fold Changes Pcnt2 (pericentrin 2),,1.6 fold
same,Fold Changes Pdcd4 (programmed cell death 4),,0.6 fold
same,"Fold Changes Pdk4 (pyruvate dehydrogenase kinase, isoenzyme 4)",,0.9 fold
same,Fold Changes Pigr (polymeric immunoglobulin receptor),,0.7 fold
same,"Fold Changes Pkm2 (pyruvate kinase, muscle)",,0.5 fold
same,Fold Changes Plk1 (polo-like kinase 1 (Drosophila)),,0.3 fold
same,Fold Changes Prp19 (PRP19/PSO4 homolog (S. cerevisiae)),,0.5 fold
same,Fold Changes Psap (prosaposin),,17.3 fold
same,"Fold Changes Psma3 (proteasome (prosome, macropain) subunit, alpha type 3)",,0.7 fold
same,"Fold Changes Psmc1 (protease (prosome, macropain) 26S subunit, ATPase 1)",,0.5 fold
same,"Fold Changes Psmd8 (proteasome (prosome, macropain) 26S subunit, non-ATPase, 8)",,0.7 fold
same,"Fold Changes Psmd11 (proteasome (prosome, macropain) 26S subunit, non-ATPase, 11)",,0.6 fold
same,"Fold Changes Rab2 (RAB2, member RAS oncogene family)",,0.9 fold
same,Fold Changes Rbm17 (RNA binding motif protein 17),,0.7 fold
same,Fold Changes Retn (resistin),,1.9 fold
same,"Fold Changes Rhoa (ras homolog gene family, member A)",,1.4 fold
same,Fold Changes Rpl30 (ribosomal protein L30),,0.7 fold
same,Fold Changes Rpp14 (ribonuclease P 14 kDa subunit (human)),,0.7 fold
same,Fold Changes Rrad (Ras-related associated with diabetes),,0.5 fold
same,Fold Changes Rtn4 (reticulon 4),,0.9 fold
same,Fold Changes Rwdd1 (RWD domain containing 1),,0.6 fold
same,Fold Changes Sara2 (SAR1a gene homolog 2 (S. cerevisiae)),,0.8 fold
same,Fold Changes Scamp2 (secretory carrier membrane protein 2),,0.7 fold
same,Fold Changes Sgk (serum/glucocorticoid regulated kinase),,0.8 fold
same,"Fold Changes Siat6 (sialyltransferase 6 (N-acetyllacosaminide alpha 2,3-sialyltransferase))",,2 fold
same,Fold Changes Skp1a (S-phase kinase-associated protein 1A),,0.5 fold
same,"Fold Changes Slc2a5 (solute carrier family 2 (facilitated glucose transporter), member 5)",,0.2 fold
same,"Fold Changes Slc38a2 (solute carrier family 38, member 2)",,0.8 fold
same,Fold Changes Slpi (secretory leukocyte protease inhibitor),,1.1 fold
same,Fold Changes Snx2 (sorting nexin 2),,1.5 fold
same,Fold Changes Sorbs1 (sorbin and SH3 domain containing 1),,0.8 fold
same,Fold Changes Spr (sepiapterin reductase),,1.4 fold
same,Fold Changes Sri (sorcin),,2.3 fold
same,Fold Changes St13 (suppression of tumorigenicity 13),,1.5 fold
same,Fold Changes Stam2 (signal transducing adaptor molecule (SH3 domain and ITAM motif) 2),,4.3 fold
same,Fold Changes Strap (serine/threonine kinase receptor associated protein),,0.6 fold
same,Fold Changes Tcfl1 (transcription factor-like 1),,0.7 fold
same,"Fold Changes Tgm3 (transglutaminase 3, E polypeptide)",,2.5 fold
same,Fold Changes Tm4sf3 (transmembrane 4 superfamily member 3),,0.5 fold
same,Fold Changes Tnpo1 (transportin 1),,0.4 fold
same,Fold Changes Tnxb (tenascin XB),,1.4 fold
same,Fold Changes Top1 (topoisomerase (DNA) I),,0.5 fold
same,Fold Changes Transcribed sequence with strong similarity to protein sp: P49840 (H. sapiens),,0.8 fold
same,Fold Changes Transcribed sequences,,0.7 fold
same,Fold Changes Tsta3 (tissue specific transplantation antigen P35B),,0.9 fold
same,"Fold Changes Tubg2 (tubulin, gamma 2)",,1.6 fold
same,Fold Changes Ubb (ubiquitin B),,0.7 fold
same,"Fold Changes Ube2e1 (ubiquitin-conjugating enzyme E2E 1, UBC4/5 homolog (yeast))",,0.7 fold
same,Fold Changes Upf3b (UPF3 regulator of nonsense transcripts homolog B (yeast)),,0.7 fold
same,Fold Changes Utrn (utrophin),,1.7 fold
same,Fold Changes Vps54 (vacuolar protein sorting 54 (yeast)),,0.4 fold
same,Fold Changes Wars (tryptophanyl-tRNA synthetase),,1.9 fold
same,Fold Changes Xcl1 (chemokine (C motif) ligand 1),,4.7 fold
same,Fold Changes Xpo7 (exportin 7),,0.7 fold
same,Fold Changes Zfp101 (zinc finger protein 101),,0.2 fold
same,Fold Changes Zfp289 (zinc finger protein 289),,0.6 fold
same,Fold Changes Rpl10a (ribosomal protein L10A),Table 1 (down regulation),0.4 fold
same,Fold Changes Itgav (integrin alpha V),"Table 1, first Itgav line",0.2 fold
same,Fold Changes Itgav (integrin alpha V),"Table 1, second Itgav line",0.7 fold
same,Fold Changes Itgav (integrin alpha V),Table 2 (up regulation),4.6 fold
same,Fold Changes Rpl10a (ribosomal protein L10A),Table 2 (up regulation),1.2 fold
